Reference: ChEMBL document CHEMBL4602617, “Discovery and optimization of heteroaryl piperazines as potent and selective PI3Kδ inhibitors” (Bioorg Med Chem Lett, 2020)

Tests used:
[1] = target: AMPK alpha2/beta1/gamma1 (Homo sapiens, UniProt P54619+P54646+Q9Y478); assay: Inhibition of recombinant full length GST/His-tagged human AMPK alpha2/beta1/gamma1 expressed in baculovirus expression system using Ser/Thr-23 peptide as substrate incubated for 60 mins in presence of ATP by Z'-LYTE assay
[2] = Half life in rat at 0.5 mg/kg, iv 1 mg/kg, po; assay type: ADME, organism-based; settings: in vivo
[3] = target: Ribosomal protein S6 kinase alpha-5 (Homo sapiens, UniProt O75582); assay: Inhibition of recombinant full length human GST-tagged RPS6KA5 expressed in baculovirus expression system using ser/Thr01 peptide as substrate incubated for 60 mins in presence of ATP by Z'-LYTE assay
[4] = target: Nuclear receptor subfamily 1 group I member 2 (Homo sapiens, UniProt O75469); assay: Inhibition of PXR (unknown origin)
[5] = target: Platelet-derived growth factor receptor alpha (Homo sapiens, UniProt P16234, D842V); assay: Inhibition of recombinant human GST-tagged PDGFRalpha D842V cytoplasmic domain expressed in baculovirus expression system using tyrosine-4 peptide as substrate incubated for 60 mins in presence of ATP by Z'-LYTE assay
[6] = target: Acetylcholinesterase (Homo sapiens) (UniProt P22303); assay: Inhibition of human recombinant acetylcholine esterase expressed in HEK293 cells at 10 uM using acetylcholine as substrate preincubated for 15 mins followed by substrate addition measured after 20 mins by spectrophotometric analysis relative to control
[7] = target: Death-associated protein kinase 3 (Homo sapiens, UniProt O43293); assay: Inhibition of recombinant human full-length GST-tagged DAPK3 expressed in baculovirus expression system using FRET-labeled Ser/Thr 13 peptide as substrate measured after 1 hr in presence of ATP by Z'-lyte assay
[8] = target: Serine/threonine-protein kinase PAK 3 (Homo sapiens, UniProt O75914); assay: Inhibition of recombinant full length human His-tagged PAK3 expressed in baculovirus expression system using serine/threonine-20 peptide as substrate incubated for 60 mins in presence of ATP by Z'-LYTE assay
[9] = target: Somatostatin receptor type 2 (Homo sapiens) (UniProt P30874); assay: Displacement of [125I]Tyr11-Somatostatin 14 from recombinant full length human SST2 expressed in CHO-K1 cells at 10 uM after 4 hrs by radiometric scintillation analysis relative to control; assay type: cell-based
[10] = target: Serine/threonine-protein kinase Chk1 (Homo sapiens, UniProt O14757); assay: Inhibition of recombinant human full-length His-tagged CHEK1 expressed in baculovirus expression system using FRET-labeled Ser/Thr 19 peptide as substrate measured after 1 hr in presence of ATP by Z'-lyte assay
[11] = target: Megakaryocyte-associated tyrosine-protein kinase (Homo sapiens, UniProt P42679); assay: Inhibition of recombinant full length human His-tagged MATK expressed in Escherichia coli using tyr-01 peptide as substrate incubated for 60 mins in presence of ATP by Z'-LYTE assay
[12] = target: Dual specificity protein kinase CLK3 (Homo sapiens, UniProt P49761); assay: Inhibition of recombinant full length human GST-tagged CLK3 expressed in baculovirus expression system using serine/threonine-18 peptide as substrate incubated for 60 mins in presence of ATP by Z'-LYTE assay
[13] = target: Ephrin type-B receptor 3 (Homo sapiens, UniProt P54753); assay: Inhibition of recombinant human GST-tagged EPHB3 catalytic domain expressed in baculovirus expression system using tyrosine-2 peptide as substrate incubated for 60 mins in presence of ATP by Z'-LYTE assay
[14] = target: Corticotropin-releasing factor receptor 1 (Homo sapiens) (UniProt P34998); assay: Displacement of [125I](Tyr0)-CRF from recombinant full length human recombinant CRF1 expressed in CHO-K1 cells at 10 uM measured after 60 mins by radiometric scintillation analysis relative to control; assay type: cell-based
[15] = target: Dual specificity protein kinase CLK2 (Homo sapiens, UniProt P49760); assay: Inhibition of recombinant human GST-tagged CLK2 catalytic domain (137 to 498 residues) expressed in baculovirus expression system using serine/threonine-6 peptide as substrate incubated for 60 mins in presence of ATP by Z'-LYTE assay
[16] = target: Tyrosine-protein kinase ZAP-70 (Homo sapiens, UniProt P43403); assay: Inhibition of recombinant full length human His-tagged ZAP70 cytoplasmic domain expressed in baculovirus expression system using fluorophore-labeled tyrosine-07 peptide as substrate incubated for 60 mins in presence of ATP by Z'-LYTE assay
[17] = target: Homeodomain-interacting protein kinase 4 (Homo sapiens, UniProt Q8NE63); assay: Inhibition of recombinant full length human N-terminal GST-tagged HIPK4 expressed in baculovirus expression system using serine/threonine-18 peptide as substrate incubated for 60 mins in presence of ATP by Z'-LYTE assay
[18] = target: Receptor-type tyrosine-protein kinase FLT3 (Homo sapiens, UniProt P36888, D835Y); assay: Inhibition of recombinant human His-tagged FLT3 D835Y mutant cytoplasmic domain expressed in baculovirus expression system after 1 using tyrosine 2 as substrate after 1 hr in presence of ATP by ZYLTE assay
[19] = target: Tyrosine-protein kinase HCK (Homo sapiens, UniProt P08631); assay: Inhibition of recombinant full length N-terminal GST-tagged human HCK expressed in baculovirus expression system using Tyr 02 as substrate after 1 hr in presence of ATP by Z'-LYTE assay
[20] = target: Adenosine receptor A2a (Homo sapiens) (UniProt P29274); assay: Displacement of [3H]CGS-21680 from full-length recombinant human A2A receptor expressed in HEK293 cells at 10 uM measured after 90 mins by scintillation counting method relative to control; assay type: cell-based
[21] = target: Muscarinic acetylcholine receptor M1 (Homo sapiens) (UniProt P11229); assay: Displacement of [3H]N-Methylscopolamine from full length human recombinant Muscarinic M1 receptor expressed in CHOK1 cells at 10 uM measured after 120 mins by radiometric scintillation analysis relative to control; assay type: cell-based; settings: CHO-K1
[22] = target: NUAK family SNF1-like kinase 1 (Homo sapiens, UniProt O60285); assay: Inhibition of recombinant full length His-tagged human NUAK1 expressed in baculovirus expression system using CHKtide as substrate after 1 hr in presence of ATP by Adapta assay
[23] = target: Glutamate receptor ionotropic, AMPA (Rattus norvegicus) (UniProt P19491+P19492+P19493+P19490); assay: Displacement of [3H]AMPA from glutamate AMPA receptor in Wistar rat cerebral cortical membranes at 10 uM incubated for 90 mins by radiometric scintillation analysis relative to control
[24] = target: Tyrosine-protein kinase ABL1 (Homo sapiens, UniProt P00519, T315I); assay: Inhibition of recombinant full length human His-tagged ABL1 T315I mutant cytoplasmic domain expressed in baculovirus expression system using tyrosine-2 peptide as substrate incubated for 60 mins in presence of ATP by Z'-LYTE assay
[25] = target: Proto-oncogene tyrosine-protein kinase Src (Homo sapiens, UniProt P12931); assay: Inhibition of recombinant full length human His-tagged SRC expressed in baculovirus expression system using tyrosine-2 peptide as substrate incubated for 60 mins in presence of ATP by Z'-LYTE assay
Sequence of Proto-oncogene tyrosine-protein kinase Src (P12931 2-536 limits assumed): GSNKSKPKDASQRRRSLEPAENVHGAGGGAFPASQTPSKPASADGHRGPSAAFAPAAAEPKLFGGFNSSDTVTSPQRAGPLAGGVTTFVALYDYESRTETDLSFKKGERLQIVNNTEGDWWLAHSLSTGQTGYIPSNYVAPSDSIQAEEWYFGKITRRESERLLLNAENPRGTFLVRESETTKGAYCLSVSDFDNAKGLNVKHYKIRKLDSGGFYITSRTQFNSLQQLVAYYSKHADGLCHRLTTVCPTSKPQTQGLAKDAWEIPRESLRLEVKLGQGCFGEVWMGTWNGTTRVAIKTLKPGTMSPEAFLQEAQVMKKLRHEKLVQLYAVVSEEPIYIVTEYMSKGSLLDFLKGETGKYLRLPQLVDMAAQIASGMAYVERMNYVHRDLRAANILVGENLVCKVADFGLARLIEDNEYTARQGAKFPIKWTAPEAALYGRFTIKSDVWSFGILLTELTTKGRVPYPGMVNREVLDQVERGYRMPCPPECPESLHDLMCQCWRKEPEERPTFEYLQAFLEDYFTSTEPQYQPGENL

Sequence of Somatostatin receptor type 2 (Homo sapiens) (P30874 whole entry): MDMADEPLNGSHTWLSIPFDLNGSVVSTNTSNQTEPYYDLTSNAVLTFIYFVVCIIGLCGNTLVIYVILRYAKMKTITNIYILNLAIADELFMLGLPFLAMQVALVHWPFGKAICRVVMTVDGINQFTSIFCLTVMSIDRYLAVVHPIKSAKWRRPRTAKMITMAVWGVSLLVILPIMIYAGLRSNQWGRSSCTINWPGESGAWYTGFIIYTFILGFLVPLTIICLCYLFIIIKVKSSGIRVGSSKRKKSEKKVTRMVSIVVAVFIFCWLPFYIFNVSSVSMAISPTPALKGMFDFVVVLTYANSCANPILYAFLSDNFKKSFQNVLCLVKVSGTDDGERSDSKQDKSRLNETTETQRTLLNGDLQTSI
Sequence of Tyrosine-protein kinase HCK (P08631 whole entry): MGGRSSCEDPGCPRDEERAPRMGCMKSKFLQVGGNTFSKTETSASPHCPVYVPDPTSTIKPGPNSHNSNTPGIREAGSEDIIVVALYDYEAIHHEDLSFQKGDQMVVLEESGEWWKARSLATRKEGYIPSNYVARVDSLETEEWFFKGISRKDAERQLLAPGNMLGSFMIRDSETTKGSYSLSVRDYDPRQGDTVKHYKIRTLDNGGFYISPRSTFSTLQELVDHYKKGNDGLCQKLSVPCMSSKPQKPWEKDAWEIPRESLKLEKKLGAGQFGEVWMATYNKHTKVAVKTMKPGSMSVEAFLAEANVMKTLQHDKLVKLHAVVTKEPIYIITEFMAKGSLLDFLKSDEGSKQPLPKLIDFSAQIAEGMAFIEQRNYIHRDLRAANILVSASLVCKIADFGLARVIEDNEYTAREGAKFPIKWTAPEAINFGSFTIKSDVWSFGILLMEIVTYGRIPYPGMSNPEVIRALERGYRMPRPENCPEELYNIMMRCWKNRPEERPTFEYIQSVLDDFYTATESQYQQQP
Sequence of Tyrosine-protein kinase ZAP-70 (P43403 whole entry, the tested form may be a part): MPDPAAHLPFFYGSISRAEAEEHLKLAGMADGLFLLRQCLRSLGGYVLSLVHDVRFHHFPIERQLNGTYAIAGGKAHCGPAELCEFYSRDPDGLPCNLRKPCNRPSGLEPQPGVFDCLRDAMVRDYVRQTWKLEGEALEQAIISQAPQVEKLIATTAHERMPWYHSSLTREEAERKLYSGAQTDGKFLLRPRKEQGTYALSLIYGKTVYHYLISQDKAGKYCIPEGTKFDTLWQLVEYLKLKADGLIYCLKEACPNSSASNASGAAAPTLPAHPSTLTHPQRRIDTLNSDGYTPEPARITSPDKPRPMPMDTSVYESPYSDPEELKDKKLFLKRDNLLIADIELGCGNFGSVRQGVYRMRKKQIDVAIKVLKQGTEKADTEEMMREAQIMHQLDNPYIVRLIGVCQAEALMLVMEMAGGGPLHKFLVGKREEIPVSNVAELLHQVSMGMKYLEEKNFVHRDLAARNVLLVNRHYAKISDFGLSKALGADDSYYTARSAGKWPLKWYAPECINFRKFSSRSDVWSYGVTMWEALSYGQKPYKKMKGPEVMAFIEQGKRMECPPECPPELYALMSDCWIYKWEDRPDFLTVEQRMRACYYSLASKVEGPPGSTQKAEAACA
Sequence of Homeodomain-interacting protein kinase 4 (Q8NE63 whole entry, the tested form may be a part): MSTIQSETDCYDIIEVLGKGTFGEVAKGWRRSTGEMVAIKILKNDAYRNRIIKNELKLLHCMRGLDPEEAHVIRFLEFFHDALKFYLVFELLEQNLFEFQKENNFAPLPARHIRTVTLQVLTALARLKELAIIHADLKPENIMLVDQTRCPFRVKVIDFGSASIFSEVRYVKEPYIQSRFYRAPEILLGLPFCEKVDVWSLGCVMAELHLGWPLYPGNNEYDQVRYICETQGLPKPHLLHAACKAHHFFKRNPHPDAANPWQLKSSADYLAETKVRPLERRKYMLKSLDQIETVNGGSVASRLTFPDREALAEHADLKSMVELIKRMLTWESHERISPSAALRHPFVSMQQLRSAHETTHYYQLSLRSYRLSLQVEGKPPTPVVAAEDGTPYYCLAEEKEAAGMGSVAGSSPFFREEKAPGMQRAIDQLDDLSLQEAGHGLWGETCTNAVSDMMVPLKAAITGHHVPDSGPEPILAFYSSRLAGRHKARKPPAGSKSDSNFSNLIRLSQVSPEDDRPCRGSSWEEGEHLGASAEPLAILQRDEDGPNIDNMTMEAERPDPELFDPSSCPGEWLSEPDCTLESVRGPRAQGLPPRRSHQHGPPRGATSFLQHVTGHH
Sequence of Muscarinic acetylcholine receptor M1 (Homo sapiens) (P11229 whole entry): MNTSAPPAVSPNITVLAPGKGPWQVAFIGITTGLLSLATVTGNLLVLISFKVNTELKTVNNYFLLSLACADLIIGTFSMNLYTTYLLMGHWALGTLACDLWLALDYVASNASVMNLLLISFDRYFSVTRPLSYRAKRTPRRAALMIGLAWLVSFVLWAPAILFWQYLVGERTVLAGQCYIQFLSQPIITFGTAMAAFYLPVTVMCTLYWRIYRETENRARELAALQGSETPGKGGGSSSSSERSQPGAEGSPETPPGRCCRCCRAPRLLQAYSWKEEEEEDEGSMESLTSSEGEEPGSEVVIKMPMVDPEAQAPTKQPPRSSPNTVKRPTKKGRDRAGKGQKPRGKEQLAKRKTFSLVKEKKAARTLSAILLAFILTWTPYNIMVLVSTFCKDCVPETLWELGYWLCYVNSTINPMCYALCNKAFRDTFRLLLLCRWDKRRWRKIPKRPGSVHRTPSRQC
Sequence of Megakaryocyte-associated tyrosine-protein kinase (P42679 whole entry): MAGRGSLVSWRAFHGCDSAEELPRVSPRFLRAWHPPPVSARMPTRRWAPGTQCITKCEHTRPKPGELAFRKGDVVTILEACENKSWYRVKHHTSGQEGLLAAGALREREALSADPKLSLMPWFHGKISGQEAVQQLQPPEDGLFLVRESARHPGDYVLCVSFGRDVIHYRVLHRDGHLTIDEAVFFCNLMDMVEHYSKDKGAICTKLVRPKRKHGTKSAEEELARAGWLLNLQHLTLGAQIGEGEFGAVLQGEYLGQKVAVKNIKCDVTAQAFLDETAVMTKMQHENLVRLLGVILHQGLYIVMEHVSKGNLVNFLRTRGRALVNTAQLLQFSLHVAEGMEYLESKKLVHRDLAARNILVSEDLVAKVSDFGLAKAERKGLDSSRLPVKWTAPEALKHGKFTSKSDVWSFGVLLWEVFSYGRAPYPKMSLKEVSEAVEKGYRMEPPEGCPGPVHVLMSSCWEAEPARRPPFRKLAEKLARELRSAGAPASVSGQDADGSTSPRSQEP
Sequence of Serine/threonine-protein kinase PAK 3 (O75914 whole entry): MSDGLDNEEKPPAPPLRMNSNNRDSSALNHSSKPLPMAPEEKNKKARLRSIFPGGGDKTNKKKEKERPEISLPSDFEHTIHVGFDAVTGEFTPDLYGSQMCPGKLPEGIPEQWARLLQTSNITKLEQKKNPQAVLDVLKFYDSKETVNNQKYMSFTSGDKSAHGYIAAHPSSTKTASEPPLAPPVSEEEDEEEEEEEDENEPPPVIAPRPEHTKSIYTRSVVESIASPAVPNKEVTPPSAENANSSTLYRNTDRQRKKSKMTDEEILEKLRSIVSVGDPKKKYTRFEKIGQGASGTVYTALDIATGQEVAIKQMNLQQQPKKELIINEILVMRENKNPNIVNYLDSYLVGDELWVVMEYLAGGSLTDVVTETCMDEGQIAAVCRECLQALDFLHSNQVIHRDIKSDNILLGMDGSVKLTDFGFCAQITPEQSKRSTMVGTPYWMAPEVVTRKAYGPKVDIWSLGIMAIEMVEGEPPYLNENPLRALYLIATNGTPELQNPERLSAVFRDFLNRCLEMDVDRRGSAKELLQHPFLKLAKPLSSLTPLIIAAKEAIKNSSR
Sequence of Death-associated protein kinase 3 (O43293 whole entry): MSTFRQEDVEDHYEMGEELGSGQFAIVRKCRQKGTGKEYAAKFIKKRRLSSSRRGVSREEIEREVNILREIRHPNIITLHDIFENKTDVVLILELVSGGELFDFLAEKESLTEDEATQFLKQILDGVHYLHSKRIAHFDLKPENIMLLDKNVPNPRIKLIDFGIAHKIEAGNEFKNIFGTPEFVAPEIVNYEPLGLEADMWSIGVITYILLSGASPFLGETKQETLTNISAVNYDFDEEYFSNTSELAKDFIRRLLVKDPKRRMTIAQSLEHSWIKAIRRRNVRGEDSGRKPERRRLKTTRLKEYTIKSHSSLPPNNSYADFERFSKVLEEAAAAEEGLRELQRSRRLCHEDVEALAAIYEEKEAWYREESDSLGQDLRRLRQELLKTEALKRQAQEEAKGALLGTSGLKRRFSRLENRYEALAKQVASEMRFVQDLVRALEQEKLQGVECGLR

Q: Which results are given for `C[C@@H]1C[C@H]1C(=O)N1CCN(c2cnc(C#N)c(-c3cnn(C)c3)n2)C[C@H]1C`?
A: IC50 [1]: > 100 µM; half-life [2]: 36 min; IC50 [3]: > 100 µM; EC50 [4]: > 30 µM; IC50 [5]: > 100 µM; inhibition [6]: 37%; IC50 [7]: > 100 µM; IC50 [8]: > 100 µM; inhibition [9]: -5%; IC50 [10]: > 100 µM; IC50 [11]: > 100 µM; IC50 [12]: > 100 µM; IC50 [13]: > 100 µM; inhibition [14]: 6%; IC50 [15]: > 100 µM; IC50 [16]: > 100 µM; IC50 [17]: > 100 µM; IC50 [18]: > 100 µM; IC50 [19]: 37.6 µM; inhibition [20]: 18%; inhibition [21]: -3%; IC50 [22]: > 100 µM; inhibition [23]: 7%; IC50 [24]: > 100 µM; IC50 [25]: > 100 µM
